Test results as given in ChEMBL document CHEMBL1240505, “Studies on preparation and photodynamic mechanism of chlorin P6-13,15-N-(cyclohexyl)cycloimide (Chlorin-H) and its antitumor effect for photodynamic therapy in vitro and in vivo” (Bioorg Med Chem, 2010).
Active and inactive are the calls of the source. No cut-off for these calls is given here.

How the values were obtained:
A549 [1] = experiment: Induction of apoptosis in human A549 cells assessed as apoptotic cells at 4 uM after 24 hrs followed by irradiated with light dose 0.18 J/cm2 using annexin-V-PE/7-AAD double staining by flow cytometry; type: functional
A549 [2] = experiment: Induction of apoptosis in human A549 cells assessed as down regulation of […] mRNA expression at 2 uM after 24 hrs followed by irradiated with light dose 0.18 J/cm2 by RT-PCR analysis; type: functional, cell-based
A549 [3] = experiment: Induction of apoptosis in human A549 cells assessed as late apoptotic cells at 4 uM after 24 hrs using annexin-V-PE/7-AAD double staining by flow cytometry; type: functional
A549 [4] = experiment: Antitumor activity against human A549 cells xenografted in nude BALB/C mouse assessed as tumor shrinkage at 8 uM after 24 hrs followed by irradiated with light dose 78 J/cm2 measured after 10 days; type: functional, cell-based
A549 [5] = experiment: Induction of apoptosis in human A549 cells transfected with lentivirus GFP assessed as cell survival at 4 uM after 24 hrs followed by irradiated with light dose 0.18 J/cm2 by MTT assay; type: functional; settings: A549, light or radiation study, read-out: Activity
A549 [6] = experiment: Induction of apoptosis in human A549 cells assessed as pre-necrotic cells at 4 uM after 24 hrs using annexin-V-PE/7-AAD double staining by flow cytometry; type: functional
A549 [7] = experiment: Cell cycle arrest in human A549 cells assessed as accumulation at G2/M phase at 4 uM after 24 hrs followed by irradiated with light dose 0.18 J/cm2 by flow cytometry; type: functional
A549 [8] = experiment: Cell cycle arrest in human A549 cells assessed as accumulation at G2/M phase at 4 uM after 24 hrs by flow cytometry; type: functional
[9] = Drug uptake in human A549 cell nucleus by using Hoechst 33258 staining; type: ADME, cell-based
A549 [10] = experiment: Induction of apoptosis in human A549 cells assessed as down regulation of […] mRNA expression at 4 uM after 24 hrs followed by irradiated with light dose 0.18 J/cm2 by RT-PCR analysis; type: functional, cell-based
A549 [11] = experiment: Cell cycle arrest in human A549 cells assessed as accumulation at G0/G1 phase at 4 uM after 24 hrs by flow cytometry; type: functional
A549 [12] = experiment: Cell cycle arrest in human A549 cells assessed as accumulation at G0/G1 phase at 4 uM after 24 hrs followed by irradiated with light dose 0.18 J/cm2 by flow cytometry; type: functional
[13] = Drug uptake in human A549 cell mitochondria by using Hoechst 33258 staining; type: ADME
A549 [14] = experiment: Induction of apoptosis in human A549 cells assessed as late apoptotic mitochondrial membrane depolarized cells at 4 uM after 24 hrs followed by irradiated with light dose 0.18 J/cm2 using JC-1 staining by flow cytometry; type: functional
HL-60 [15] = experiment: Cytotoxicity against human HL60 cells assessed as cell survival at 4 uM after 24 hrs followed by irradiated with light dose 0.18 J/cm2 by MTT assay; type: functional; settings: HL-60, light or radiation study, read-out: Activity
HL-60 [16] = experiment: Cytotoxicity against human HL60 cells assessed as cell death at 4 uM after 24 hrs followed by irradiated with light dose 0.18 J/cm2 by MTT assay; type: functional, cell-based
A549 [17] = experiment: Induction of apoptosis in human A549 cells assessed as upregulation of TNFSF13 mRNA expression at 4 uM after 24 hrs followed by irradiated with light dose 0.18 J/cm2 by RT-PCR analysis; type: functional, cell-based
A549 [18] = experiment: Induction of apoptosis in human A549 cells assessed as live mitochondrial membrane polarized cells at 4 uM after 24 hrs using JC-1 staining by flow cytometry; type: functional
A549 [19] = experiment: Induction of apoptosis in human A549 cells assessed as dying mitochondrial membrane depolarized cells at 4 uM after 24 hrs followed by irradiated with light dose 0.18 J/cm2 using JC-1 staining by flow cytometry; type: functional
A549 [20] = experiment: Induction of apoptosis in human A549 cells assessed as live mitochondrial membrane depolarized cells at 4 uM after 24 hrs using JC-1 staining by flow cytometry; type: functional
A549 [21] = experiment: Antitumor activity against human A549 cells xenografted in nude BALB/C mouse assessed as scab formation at 8 uM after 24 hrs followed by irradiated with light dose 78 J/cm2 measured after 20 days; type: functional, cell-based
A549 [22] = experiment: Induction of apoptosis in human A549 cells transfected with lentivirus GFP assessed as reduction of GFP mRNA level at 4 uM after 24 hrs followed by irradiated with light dose 0.18 J/cm2 by MTT assay; type: functional; set-up: scale not given: the % may be the effect or the level left
A549 [23] = experiment: Induction of apoptosis in human A549 cells assessed as live mitochondrial membrane depolarized cells at 4 uM after 24 hrs followed by irradiated with light dose 0.18 J/cm2 using JC-1 staining by flow cytometry; type: functional
A549 [24] = experiment: Induction of apoptosis in human A549 cells assessed as viable cells at 4 uM after 24 hrs followed by irradiated with light dose 0.18 J/cm2 using annexin-V-PE/7-AAD double staining by flow cytometry; type: functional; settings: A549, light or radiation study, read-out: Activity
A549 [25] = experiment: Antitumor activity against human A549 cells xenografted in nude BALB/C mouse assessed as reduction of tumor growth at 8 uM after 20 days; type: functional, cell-based
A549 [26] = experiment: Induction of apoptosis in human A549 cells assessed as upregulation of Smac mRNA expression at 4 uM after 24 hrs followed by irradiated with light dose 0.18 J/cm2 by RT-PCR analysis; type: functional, cell-based
A549 [27] = experiment: Induction of apoptosis in human A549 cells assessed as viable cells at 4 uM after 24 hrs followed by irradiated with light dose 0.18 J/cm2 using annexin-V FITC/PI double staining by flow cytometry; type: functional; settings: A549, light or radiation study, read-out: Activity
A549 [28] = experiment: Cell cycle arrest in human A549 cells assessed as accumulation at S phase at 4 uM after 24 hrs by flow cytometry; type: functional
A549 [29] = experiment: Induction of apoptosis in human A549 cells assessed as live mitochondrial membrane polarized cells at 4 uM after 24 hrs followed by irradiated with light dose 0.18 J/cm2 using JC-1 staining by flow cytometry; type: functional
A549 [30] = experiment: Induction of apoptosis in human A549 cells assessed as upregulation of Bcl2 mRNA expression at 4 uM after 24 hrs followed by irradiated with light dose 0.18 J/cm2 by RT-PCR analysis; type: functional, cell-based
A549 [31] = experiment: Induction of apoptosis in human A549 cells transfected with lentivirus Smac-siRNA assessed as reduction of Smac mRNA level at 4 uM after 24 hrs followed by irradiated with light dose 0.18 J/cm2 by MTT assay; type: functional; set-up: scale not given: the % may be the effect or the level left

For `C=Cc1c(C)c2cc3nc(c4c5[nH]c(cc6nc(cc1[nH]2)C(C)=C6CC)c(C)c5C(=O)N(C1CCCCC1)C4=O)[C@@H](CCC(=O)O)[C@@H]3C`, the Activity (A549 [1]) was 55.33%, the Activity (A549 [2]) was “Active” and the Activity (A549 [3]) was 3.6%. The Activity (A549 [4]) was “Active”, the viability at 4 µM (A549 [5]) was 44.9% and the Activity (A549 [6]) was 0.41%. The Activity (A549 [7]) was 56.07%, the Activity (A549 [8]) was 11.07% and the Drug uptake [9] was “Active”. For the same compound, the Activity (A549 [10]) was “Active”, the Activity (A549 [11]) was 53.48% and the Activity (A549 [12]) was 22.37%. For the same compound, the Drug uptake [13] was “Active”, the Activity (A549 [14]) was 91.08% and the viability at 4 µM (HL-60 [15]) was 78.6%. The Activity (HL-60 [16]) was “Active”, the Activity (A549 [17]) was “Active” and the Activity (A549 [18]) was 0%. The Activity (A549 [19]) was 8.28%, the Activity (A549 [20]) was 0.01% and the Activity (A549 [21]) was “Active”. For the same compound, the Activity (A549 [22]) was 18.8%, the Activity (A549 [23]) was 0.01% and the viability at 4 µM (A549 [24]) was 9.32%. The Activity (A549 [25]) was “inactive”, the Activity (A549 [26]) was “Active” and the viability at 4 µM (A549 [27]) was 2.08%. For the same compound, the Activity (A549 [28]) was 35.44%, the Activity (A549 [29]) was 0.01% and the Activity (A549 [30]) was “Active”. It also gave an Activity (A549 [31]) of 60%.
